The test system of one experiment is Poria placenta FPRL 280. Put plainly: Bravery test (closely based on EN 113) on impregnated wood test specimens, preventive effect against wood-destroying fungi. Conditions: test fungus PP, Pinus spp. (southern yellow pine) specimens 40x15x4 mm, loss in weight after 6 weeks, <3% by weight = satisfactory; for Limits of the effectiveness, with leaching (EN 84): with leaching according to EN 84. In kind it is cell-based. The procedure: (§1) The limits of the effectiveness of the compositions according to the invention with regard to wood-destroying basidiomycetes were determined on wood test specimens of Pinus spp. (southern yellow pine) with the dimensions 40×15×4 mm. The test method on comminuted wood test specimens, known as the Bravery test, is closely based on EN 113 and is used to determine the preventive effect of wood preservatives against wood-destroying fungi (see in this connection A. F. Bravery, Intern. Res. Group Wood Pres., Doc. No. IRG/WP/2113, 5S., Stockholm, 1978). The wood test specimens impregnated with the composition according to the invention were tested without or with the constraint of leaching according to EN 84. […] Coniophora puteana BAM Ebw. 15 and Poria placenta FPRL 280 were used as test fungi. The destruction of the wood caused by fungal infection was registered by the loss in weight of the test woods, which was determined after 6 weeks. […] The concentration limit of the effectiveness is given in two concentrations. […] The limits of the effectiveness are represented in table 4. For comparison, the values determined for a solution of the active substance in acetone are given.

Experiment [1] has as its system Coniophora puteana BAM Ebw. 15. The experiment is described as above. The experiment is classed as cell-based. The following applies: test fungus CP, Pinus spp. (southern yellow pine) specimens 40x15x4 mm, loss in weight after 6 weeks, <3% by weight = satisfactory; for Limits of the effectiveness, with leaching (EN 84): with leaching according to EN 84. The procedure:
as §1

Structures are written as SMILES.

`CC(C)(C)C(O)(CCc1ccc(Cl)cc1)Cn1cncn1` (centres unmarked) [Solution of tebuconazole, tebuconazole]: in the experiment on Poria placenta FPRL 280, the “Limits of the effectiveness, with leaching (EN 84)” value (“Limits … (EN 84)” for short) is on record as 0.095-0.152 kg/m^3 and the “Limits of the effectiveness, without leaching” value (“Limits … without leaching” for short) was 0.102-0.153 kg/m^3. Moreover, in experiment [1], the “Limits … (EN 84)” value was under 0.054 kg/m^3 and the “Limits … without leaching” value is given as under 0.052 kg/m^3.

Regarding `Fc1ccc([C@]2(Cn3cncn3)O[C@H]2c2ccccc2Cl)cc1` (racemic) [Solution of epoxiconazole, epoxiconazole], the “Limits … (EN 84)” value was 0.11-0.18 kg/m^3 in the experiment on Poria placenta FPRL 280 and 0.11-0.16 kg/m^3 in experiment [1]. Moreover, the “Limits … without leaching” value (with Poria placenta FPRL 280; in experiment [1]) was under 0.19 kg/m^3 throughout.

For the origin of these results see patent US10420339B2, “Aqueous fungicidal composition and use thereof for combating harmful micro organisms” (BASF SE, priority 2004, dated 2019).
